As a reminder, the AUC is concentration integrated over time. One may read the Cmax as the highest concentration seen after dosing. The term Tmax denotes the time from dosing to the highest level. As a reminder, the half-life is how long it takes for the measured level to halve. High values mean slow loss, low ones fast loss.

The record followed here is patent US6677313B1, “Method for gene therapy using nucleic acid loaded polymeric microparticles” (Brown University Research Foundation, priority 1995, dated 2004).

The nature of the series: in vivo. The settings on record: rat, serum, po, 25 mg/kg.

Procedure: Dicumarol containing microspheres were produced as described above in Example 2, subsection 1. Equal doses of dicumarol, spray dried dicumarol and polyanhydride (FA:SA) 20:80 encapsulated dicumarol (25 mg drug/kg body weight) suspended in 1.5 ml maple syrup were fed to catheterized rats (250-350 g). Blood samples were taken at regular intervals and serum was assayed for dicumarol concentrations using a UV spectrophotometric method.

For the molecule `O=c1oc2ccccc2c(O)c1Cc1c(O)c2ccccc2oc1=O` [STOCK DICUMAROL CONTROL, dicumarol], the exposure (AUC) came to 171 ± 33.2 µg·h/mL, the Cmax worked out at 11500 ± 1100 ng/mL, the Tmax came to 9.87 ± 1.76 h and the half-life is 18.2 ± 3.3 h.
